Values joined by “and” are separate entries in the source; they are usually repeats but may differ in a detail not shown here. Identical values can stand only once.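 Results reflect a 48-hour exposure of cells in 96-well plates to compound at five concentrations. GI50 marks 50% less growth. At the TGI there is no net growth.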

What all share (assay): inhibition of tumour cell growth, NCI panel, 48 h
The test system of assay [1] is UACC-257 melanoma.
For assay [2], the system named is HCT-15 colon.
In assay [3] the test system is TK-10 renal.
Assay [4] has as its system HCC-2998 colon.
The subject of assay [5] is HS 578T breast.
Assay [6] concerns HCT-116 colon.
The subject of assay [7] is IGROV1 ovarian.
The subject of assay [8] is NCI-H460 lung.
For assay [9], the system named is OVCAR-4 ovarian.
Assay [10] relates to MALME-3M melanoma.

On to `Cc1cc(NCCCN(C)C)c2ccc3c(ccc4c(NCCCN(C)C)cc(C)nc43)c2n1`, for which the GI50 in assay [1] is 0.199 µM; in assay [2], 0.191 µM; in [3], 0.24 µM; in assay [4], 0.134 µM; in assay [5], 0.197 µM; in assay [6], 0.17 µM. The GI50 in assay [7] was 0.152 µM; in assay [8] it was 0.171 µM; in assay [9], 0.162 µM; in assay [10], 0.244 µM. The TGI in [1] was 0.499 µM; in [2], 0.543 µM; in assay [3] it was 0.573 µM; in assay [4] it was 0.323 µM; in assay [5] it was 0.667 µM; in [6] it was 0.439 µM. Besides, the TGI in assay [7] is 0.377 µM; in assay [8] it was 0.441 µM; in assay [9], 0.508 µM; in assay [10], 0.894 µM.

Regarding `Cc1cc2c(cc1Cl)SC1=NN(C)C(C)N1S2(=O)=O` (stereo not given), the GI50 in assay [1], in [2], in assay [3], in [4], in assay [5] and in [6] was above 100 µM each time. Further, the GI50 in assay [7] was above 100 µM; in assay [8], above 100 µM; in [9] it was 74.8 µM; in [10], above 100 µM. Also, the TGI in [1], in assay [2], in assay [3], in assay [4], in [5] and in assay [6] was above 100 µM in each case. In addition, the TGI in [7], in assay [8], in [9] and in [10] was above 100 µM each time.

Consider `CC1CCC/C1=C(/I)C(=O)c1ccccc1` (stereo not given), for which the TGI in [1], in [2], in assay [3], in assay [4], in [5] and in [6] was above 100 µM each time. The TGI in assay [7], in assay [8], in [9] and in assay [10] was above 100 µM each time.

As for `CN(C)CCN1C(=O)c2c(c3c4ccccc4n4c3c3c2c2ccccc2n3C2CC(O)C(O)C4(C)O2)C1=O` (stereo not given), the GI50 was 3.32 µM in assay [1]; 1.59 µM in assay [2]; 1.32 µM in [3]; 3.93 µM in assay [4]; 2.34 µM in [5]; 0.626 µM in assay [6]. Also, the GI50 in assay [7] is 1.41 µM; in [8], 0.232 µM; in [9], 2.69 µM; in assay [10], 2.14 µM. Moreover, the TGI was 9.79 µM in assay [1]; 8.72 µM in assay [2]; 13.5 µM in assay [3]; 10.6 µM in [4]; 12 µM in assay [5]; 6.71 µM in assay [6]. Also, the TGI in [7] is 13.1 µM; in assay [8] it was 5.08 µM; in assay [9], 13.6 µM; in [10], 9.3 µM.

In the case of `C[C@@H]1[C@H](C)N1CC(O)Cn1ccnc1[N+](=O)[O-]` (stereo not given in full), the TGI in [1], in [2], in assay [3], in assay [4], in assay [5] and in assay [6] was above 100 µM each time. Moreover, the TGI in assay [7], in [8], in assay [9] and in assay [10] was above 100 µM in each case.

For the compound `CC1=C(C(=O)Nc2ccc3n[nH]c(C)c3c2)C(c2ccc(C(F)(F)F)cc2)CC(=O)N1` (stereo not given), the GI50 was above 25 µM in assay [1]; above 25 µM in assay [2]; 14 µM in assay [3]; above 25 µM in assay [4]; 0.305 µM in [5]; 12.5 µM in assay [6]. The GI50 in assay [7] was 10.3 µM; in assay [8], 16.5 µM; in assay [9] it was 16 µM; in assay [10], 13.6 µM. The TGI in assay [1] is above 25 µM; in assay [2], above 25 µM; in assay [3], above 25 µM; in assay [4] it was above 25 µM; in assay [5] it was 19.5 µM; in [6] it was above 25 µM. In addition, the TGI in assay [7], in assay [8], in assay [9] and in assay [10] was above 25 µM throughout.

Take `C[C@H]1CC[C@@]2(NC1)O[C@H]1C[C@H]3[C@@H]4CC[C@H]5C[C@@H](O)CC[C@]5(C)[C@H]4CC[C@]3(C)[C@H]1[C@@H]2C`: the GI50 in assay [1] was 22 µM; in assay [2], 20.9 µM; in [3], 11.1 µM; in assay [4], 9.32 µM; in [5], 21.8 µM; in assay [6] it was 8.32 µM. Further, the GI50 in assay [7] is 12.3 µM; in assay [8] it was 11.9 µM; in assay [9], 17.3 µM; in assay [10] it was 11.2 µM. Further, the TGI in assay [1] was 50 µM and > 100 µM; in assay [2], 50 µM and > 100 µM; in assay [3], 25.3 µM and > 100 µM; in [4] it was 22 µM and > 100 µM; in assay [5], 50 µM and > 100 µM; in assay [6], 17.3 µM and > 100 µM. Besides, the TGI was 24.5 µM and > 100 µM in [7]; 34.8 µM and > 100 µM in assay [8]; 50 µM and > 100 µM in assay [9]; 31.5 µM in [10].

Consider `COc1cc(OC)c2nc(C)c3c(c2c1)SCC3`, for which the TGI is 78.3 µM in assay [1]; above 100 µM in [2]; 38.5 µM in [3]; above 100 µM in assay [4]; 57.7 µM in [5]; 48.5 µM in [6]. For the same compound, the TGI in [7] was determined as 34.7 µM; in assay [8], 54.3 µM; in assay [9], 38.5 µM; in [10], 63.8 µM.

Values taken from PubChem BioAssay (NCI).
